These are literature values, as cited in US8071133B2, “Oral dosage forms of water insoluble drugs and methods of making the same” (Stiefel Laboratories, Inc., priority 2001, dated 2011).

For `CC(C)(C)NC(=O)[C@@H]1C[C@@H]2CCCC[C@@H]2CN1C[C@@H](O)[C@H](Cc1ccccc1)NC(=O)[C@H](CC(N)=O)NC(=O)c1ccc2ccccc2n1` [Saquinavir], the solubility in water entry is recorded as “approximately 10 microgram per mL”.
